Results as given in PMC4793301, “From chlorite dismutase towards HemQ–the role of the proximal H-bonding network in haeme binding” (Bioscience Reports, 2016).

Columns and labels:
LmHemQ = target: LmHemQ; parameters: method as in PMID 25602700; details: read-out: KD of haeme binding; cited from earlier work
BsHemQ = target: BsHemQ; parameters: method as in PMID 20543190; details: read-out: KD of haeme binding; cited from earlier work
SaHemQ = target: SaHemQ; parameters: method as in PMID 23737523; details: read-out: KD of haeme binding; cited from earlier work
[1] = target: T1, NdCld (chlorite dismutase from 'Candidatus Nitrospira defluvii') (Nitrospira defluvii, UniProt B3U4H7); experiment: biochemical; parameters: gene cld
T1 sequence (B3U4H7 27-264): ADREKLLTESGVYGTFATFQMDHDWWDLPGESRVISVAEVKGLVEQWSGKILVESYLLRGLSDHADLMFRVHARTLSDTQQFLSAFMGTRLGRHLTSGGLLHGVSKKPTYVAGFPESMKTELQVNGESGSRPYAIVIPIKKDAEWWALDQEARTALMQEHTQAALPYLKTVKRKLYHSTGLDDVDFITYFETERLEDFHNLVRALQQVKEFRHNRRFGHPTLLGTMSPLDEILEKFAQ

[2] = target: T1, NdCld (chlorite dismutase from 'Candidatus Nitrospira defluvii'); experiment: DSC, absolute Tm with ligand; type: binding; parameters: gene cld; TEV-cleavable N-terminal Strep-II tag, modified pET-21b(+), E. coli Tuner (DE3) with hemin added; haeme b pentamer; details: 50 mM MES pH 5.5
[3] = test system: NdCld (chlorite dismutase), substrate chlorite; experiment: Chlorite degradation, O2 release with Clark-type electrode (steady state); type: biochemical, Candidatus Nitrospira defluvii; details: 200 mM fluoride, 175 μM chlorite, pH 5.5
Procedure: Cld-mediated chlorite reduction and concomitant oxygen generation was monitored by measuring the release of O2 using a Clark-type electrode (Oxygraph Plus; Hansatech Instruments). The electrode was inserted into a stirred water bath maintained at 30°C. The electrode was equilibrated to 100% O2 saturation by flushing with O2, further 0% saturation was achieved by bubbling with N2 until a plateau was reached. Reactions were carried out in O2-free 50 mM MES buffer, pH 5.5. […] A high excess of ligands (200 mM F^−, 10 mM SCN^−) was present in the respective measurements. […] Molecular oxygen production rates (μM O2 s^−1) were obtained from the initial linear time traces (initial velocities, v0) for direct comparison.

NdCld wild-type = experiment: Titration of SCN− and F− to NdCld wild-type, UV–vis, dissociation constant; type: binding, Candidatus Nitrospira defluvii; details: pH 5.5, 25°C
Procedure: SCN^− and F^− were titrated to NdCld wild-type for the determination of the dissociation constant (KD). The UV–visible electronic absorption spectrum of wild-type NdCld is altered upon binding of SCN^− or F^− if the respective ligand acts as a sixth ligand to haeme b. Binding of F^− was monitored by the change in absorbance at 612 nm [charge transfer band (CT1)] and binding of SCN^− was followed at 411 nm (Soret band). The measurements were performed using a Zeiss Specord S10 DiodeArray spectrophotometer equipped using a quartz cuvette with a path length of 10 mm under constant stirring at 25°C. Samples of 2 μM concentration in 50 mM MES buffer, pH 5.5, were used. Final ligand concentrations were 120 mM (F^−) and 50 mM (SCN^−).

[4] = target: T1, NdCld (chlorite dismutase from 'Candidatus Nitrospira defluvii'); parameters: gene cld; details: 200 mM fluoride, 175 μM chlorite, 50 nM enzyme, 50 mM MES pH 5.5, 30 °C
[5] = target: T1, NdCld (chlorite dismutase from 'Candidatus Nitrospira defluvii'); experiment: UV-vis titration, Soret band […] nm; type: binding; parameters: gene cld; TEV-cleavable N-terminal Strep-II tag, modified pET-21b(+), E. coli Tuner (DE3) with hemin added; haeme b pentamer

C=CC1=C(C)c2cc3[n-]c(cc4[n-]c(cc5nc(cc1n2)C(C)=C5C=C)c(C)c4CCC(=O)O)c(CCC(=O)O)c3C.[Fe+2] [haeme, haeme b]
Kd (LmHemQ): 7 to 16 µM | Kd (BsHemQ): 30 to 40 µM | Kd (SaHemQ): 1 µM

F [F^−, fluoride]
Kd [1]: 5900 ± 400 µM | Tm ([2]; 200 mM fluoride): 102 °C | v0 of wild-type NdCld remaining relative to ligand free [3]: 53% | Kd (NdCld wild-type; F− to wild-type protein): 5900 ± 400 µM | v0 remaining [4]: 53%

N#CS [SCN^−, thiocyanate]
Kd [5]: 150 ± 40 µM | Tm ([2]; 10 mM thiocyanate, main peak): 94 °C | Kd (NdCld wild-type; SCN− to wild-type protein): 150 ± 40 µM
